Results taken from PubChem BioAssay AID330 (DTP/NCI, 2004).
Where “and” joins values, the source holds several entries; their conditions need not be identical. Identical values can stand only once. Toxic doses and inconclusive results are not listed. The calls were made as follows: active = survival T/C of 150% or more; inactive = T/C below 125% in these data.

System: P388 leukemia ip, CD2F1 mice, survival T/C
Assay: NCI In Vivo Anticancer Drug Screen. Data for tumor model P388 Leukemia (intraperitoneal) in CD2F1 (CDF1) mice
Conditions: endpoint: median survival time, higher = longer survival
Procedure, shortened: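 Mice carrying the transplanted tumor received test compound or vehicle. Survival was recorded in each group, and the value is the treated-group measurement divided by that of the vehicle-treated control group.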

[1] = dose: 50.0 mg/kg/injection, schedule: Q01DX005 (ip), vehicle: Klucel (hydroxypropylcellulose) (HPC)
[2] = dose: 100.0 mg/kg/injection, schedule: Q01DX005 (ip), vehicle: Klucel (hydroxypropylcellulose) (HPC)
[3] = dose: 200.0 mg/kg/injection, schedule: Q01DX005 (ip), vehicle: Klucel (hydroxypropylcellulose) (HPC)
[4] = dose: 50.0 mg/kg/injection, schedule: Q01DX009 (ip), vehicle: Klucel (hydroxypropylcellulose) (HPC)
[5] = dose: 100.0 mg/kg/injection, schedule: Q01DX009 (ip), vehicle: Klucel (hydroxypropylcellulose) (HPC)
[6] = dose: 200.0 mg/kg/injection, schedule: Q01DX009 (ip), vehicle: Klucel (hydroxypropylcellulose) (HPC)
[7] = dose: 100.0 mg/kg/injection, schedule: Q04DX003 (ip), vehicle: saline
[8] = dose: 50.0 mg/kg/injection, schedule: Q01DX005 (ip), vehicle: saline with Tween-80
[9] = dose: 100.0 mg/kg/injection, schedule: Q01DX005 (ip), vehicle: saline with Tween-80
[10] = dose: 200.0 mg/kg/injection, schedule: Q01DX005 (ip), vehicle: saline with Tween-80
[11] = dose: 60.0 mg/kg/injection, schedule: Q01DX005 (ip), vehicle: Klucel (hydroxypropylcellulose) (HPC)
[12] = dose: 120.0 mg/kg/injection, schedule: Q01DX005 (ip), vehicle: Klucel (hydroxypropylcellulose) (HPC)
[13] = dose: 240.0 mg/kg/injection, schedule: Q01DX005 (ip), vehicle: Klucel (hydroxypropylcellulose) (HPC)

Measured: T/C

N=c1nc(N)ncn1-c1ccccc1
inactive: dose: 1.56 mg/kg/injection, schedule: Q01DX005 (ip), vehicle: saline with Tween-80 99 % of control and 102 % of control | dose: 3.13 mg/kg/injection, schedule: Q01DX005 (ip), vehicle: saline with Tween-80 103 % of control and 104 % of control | dose: 6.25 mg/kg/injection, schedule: Q01DX005 (ip), vehicle: saline with Tween-80 99 % of control and 102 % of control | dose: 12.5 mg/kg/injection, schedule: Q01DX005 (ip), vehicle: saline with Tween-80 102 % of control and 104 % of control and 108 % of control

O=[N+]([O-])c1ccc(NS(=O)(=O)c2cccs2)c([N+](=O)[O-])c1
inactive: dose: 12.5 mg/kg/injection, schedule: Q01DX009 (ip), vehicle: saline with Tween-80 105 % of control | dose: 25.0 mg/kg/injection, schedule: Q01DX009 (ip), vehicle: saline with Tween-80 103 % of control | dose: 50.0 mg/kg/injection, schedule: Q01DX009 (ip), vehicle: saline with Tween-80 108 % of control

COc1cc2c(cc1OC)CC(=O)OC2
inactive: [1] 105 % of control | [2] 102 % of control | [3] 103 % of control

CC(C)(C)n1nnnc1Cl
inactive: [4] 107 % of control | [5] 102 % of control | [6] 107 % of control

CCC(CN)C1=Nc2ccccc2C1 (centres undefined)
inactive: dose: 25.0 mg/kg/injection, schedule: Q04DX003 (ip), vehicle: saline 101 % of control | dose: 50.0 mg/kg/injection, schedule: Q04DX003 (ip), vehicle: saline 96 % of control | [7] 103 % of control and 111 % of control

CCOC(=O)CC1(C)SCCN1C(=O)OCC (centres undefined)
inactive: dose: 25.0 mg/kg/injection, schedule: Q01DX005 (ip), vehicle: saline with Tween-80 102 % of control | [8] 98 % of control | [9] 91 % of control | [10] 105 % of control

CC(C)(C)n1nc(C2CC2)c(Br)c1NC(=O)c1ccccc1Cl
inactive: dose: 30.0 mg/kg/injection, schedule: Q01DX005 (ip), vehicle: Klucel (hydroxypropylcellulose) (HPC) 106 % of control | [11] 109 % of control | [12] 105 % of control | [13] 100 % of control

CC(C)(C)N1C(=O)C(Cl)(C#N)C1c1ccccc1 (centres undefined)
inactive: [11] 95 % of control | [12] 92 % of control | [13] 92 % of control

Clc1ccc(COC(Cn2ccnc2)c2ccc(Cl)cc2Cl)c(Cl)c1 (centres undefined)
inactive: dose: 9.37 mg/kg/injection, schedule: Q01DX009 (ip), vehicle: saline with Tween-80 107 % of control | dose: 18.75 mg/kg/injection, schedule: Q01DX005 (ip), vehicle: saline with Tween-80 99 % of control | dose: 37.5 mg/kg/injection, schedule: Q01DX005 (ip), vehicle: saline with Tween-80 106 % of control | dose: 37.5 mg/kg/injection, schedule: Q01DX009 (ip), vehicle: saline with Tween-80 104 % of control | dose: 75.0 mg/kg/injection, schedule: Q01DX005 (ip), vehicle: saline with Tween-80 108 % of control | dose: 75.0 mg/kg/injection, schedule: Q01DX009 (ip), vehicle: saline with Tween-80 112 % of control | dose: 150.0 mg/kg/injection, schedule: Q01DX005 (ip), vehicle: saline with Tween-80 110 % of control | dose: 150.0 mg/kg/injection, schedule: Q01DX009 (ip), vehicle: saline with Tween-80 107 % of control

[Cl][Pt]([Cl])([Cl])[Cl]
inactive: dose: 12.5 mg/kg/injection, schedule: Q01DX009 (ip), vehicle: saline 123 % of control | dose: 25.0 mg/kg/injection, schedule: Q01DX009 (ip), vehicle: saline 111 % of control

S=C(Nc1ccc(Br)cc1)SCc1ccc2c(c1)OCO2
inactive: dose: 50.0 mg/kg/injection, schedule: Q01DX009 (ip), vehicle: suspension in saline 109 % of control | dose: 100.0 mg/kg/injection, schedule: Q01DX009 (ip), vehicle: suspension in saline 119 % of control | dose: 200.0 mg/kg/injection, schedule: Q01DX009 (ip), vehicle: suspension in saline 93 % of control

CCO/C=C1\SC(=S)N(c2ccc(O)cc2)C1=O
inactive: [7] 113 % of control | dose: 200.0 mg/kg/injection, schedule: Q04DX003 (ip), vehicle: saline 113 % of control | dose: 400.0 mg/kg/injection, schedule: Q04DX003 (ip), vehicle: saline 109 % of control

NC1=NS(=O)(=O)c2ccccc2N1c1ccccc1
inactive: dose: 100.0 mg/kg/injection, schedule: Q04DX002 (ip), vehicle: saline with Tween-80 97 % of control | dose: 200.0 mg/kg/injection, schedule: Q04DX002 (ip), vehicle: saline with Tween-80 103 % of control | dose: 400.0 mg/kg/injection, schedule: Q04DX002 (ip), vehicle: saline with Tween-80 92 % of control

CCCCCCC(C/C=C\CCCCCCCC(=O)OC)OC(C)=O (centres undefined)
inactive: dose: 100.0 mg/kg/injection, schedule: Q04DX003 (ip), vehicle: saline with Tween-80 95 % of control | dose: 200.0 mg/kg/injection, schedule: Q04DX003 (ip), vehicle: saline with Tween-80 100 % of control | dose: 400.0 mg/kg/injection, schedule: Q04DX003 (ip), vehicle: saline with Tween-80 104 % of control

CS(=O)(=O)OCCN(CCOS(C)(=O)=O)c1ccc([N+](=O)[O-])cc1[N+](=O)[O-]
inactive: dose: 100.0 mg/kg/injection, schedule: Q01DX001 (ip), vehicle: Klucel (hydroxypropylcellulose) (HPC) 88 % of control | dose: 200.0 mg/kg/injection, schedule: Q01DX001 (ip), vehicle: Klucel (hydroxypropylcellulose) (HPC) 100 % of control | dose: 400.0 mg/kg/injection, schedule: Q01DX001 (ip), vehicle: Klucel (hydroxypropylcellulose) (HPC) 103 % of control

C=C1CCC2C(OC(=O)C2(O)CO)C2C(=C)C(O)CC12 (centres undefined)
inactive: dose: 9.38 mg/kg/injection, schedule: Q01DX005 (ip), vehicle: Klucel (hydroxypropylcellulose) (HPC) 103 % of control | dose: 18.75 mg/kg/injection, schedule: Q01DX005 (ip), vehicle: Klucel (hydroxypropylcellulose) (HPC) 105 % of control | dose: 37.5 mg/kg/injection, schedule: Q01DX005 (ip), vehicle: Klucel (hydroxypropylcellulose) (HPC) 100 % of control | dose: 75.0 mg/kg/injection, schedule: Q01DX005 (ip), vehicle: Klucel (hydroxypropylcellulose) (HPC) 104 % of control | dose: 150.0 mg/kg/injection, schedule: Q01DX005 (ip), vehicle: Klucel (hydroxypropylcellulose) (HPC) 113 % of control

CC(C)Sc1nc2ccc(NC(=O)/C=C/C(=O)O)cc2s1
inactive: [4] 100 % of control | [5] 104 % of control | [6] 101 % of control

CC1(C)C2CCC([CH2][Hg][Cl])C1C2 (centres undefined)
inactive: dose: 2.44 mg/kg/injection, schedule: Q01DX009 (ip), vehicle: saline with Tween-80 100 % of control | dose: 3.66 mg/kg/injection, schedule: Q01DX009 (ip), vehicle: saline with Tween-80 100 % of control | dose: 5.55 mg/kg/injection, schedule: Q01DX009 (ip), vehicle: other 113 % of control | dose: 5.55 mg/kg/injection, schedule: Q01DX009 (ip), vehicle: saline with Tween-80 100 % of control and 91 % of control | dose: 6.25 mg/kg/injection, schedule: Q04DX003 (ip), vehicle: other 105 % of control | dose: 8.33 mg/kg/injection, schedule: Q01DX009 (ip), vehicle: saline with Tween-80 108 % of control and 95 % of control | dose: 12.5 mg/kg/injection, schedule: Q01DX009 (ip), vehicle: other 86 % of control | dose: 12.5 mg/kg/injection, schedule: Q04DX003 (ip), vehicle: other 100 % of control | dose: 25.0 mg/kg/injection, schedule: Q04DX003 (ip), vehicle: other 100 % of control

COC(=O)CCSC(=O)Nc1ccc(Cl)cc1
inactive: [1] 105 % of control | [2] 101 % of control | [3] 113 % of control

CCc1cccc(C)c1NC(=O)CCc1nnc(N)n1N
inactive: [8] 104 % of control | [9] 107 % of control | [10] 94 % of control

CC(=O)N1c2ccccc2C23CCN4CC5=CCOC(O)C(C5CC42)C13 (centres undefined)
inactive: dose: 20.0 mg/kg/injection, schedule: Q01DX009 (ip), vehicle: Klucel (hydroxypropylcellulose) (HPC) 107 % of control | dose: 40.0 mg/kg/injection, schedule: Q01DX009 (ip), vehicle: Klucel (hydroxypropylcellulose) (HPC) 108 % of control | dose: 80.0 mg/kg/injection, schedule: Q01DX009 (ip), vehicle: Klucel (hydroxypropylcellulose) (HPC) 110 % of control | dose: 160.0 mg/kg/injection, schedule: Q01DX009 (ip), vehicle: Klucel (hydroxypropylcellulose) (HPC) 118 % of control
